From patent US11845747B2, “Ester and carbonate pyrimidine compounds as JAK kinase inhibitors” (priority 2019, dated 2023)
Converted amounts (≈) assume the structure as drawn.

Columns and labels:
[1] = In vitro skin S9 metabolic stability assay (human); format: in vitro ADME; details: human, s9, pH 7.4
Experimental: (§1) Assay 6: In Vitro Skin S9 Metabolic Stability Assay
(§2) The objective of this assay was to assess the metabolic stability of compounds in human and mouse skin S9 sub-fraction. Human and mouse skin S9 sub-fractions obtained from Bioreclamation-IVT (Baltimore, Md.) were thawed on ice and diluted into 0.1M potassium phosphate buffer pH 7.4 to yield final incubation protein concentrations of 1.0 mg/mL. Test compounds (10 mM) were diluted into phosphate buffer to yield final incubation concentrations of 0.2 μM and 2.0 μM. Incubations were conducted at 37° C. temperature following addition of 1 mM NADPH and test aliquots were taken at time points 0, 5, 10, 20, 30 and 45 minutes. Each aliquot was crashed into water with 3% formic acid and 1 μM internal standard. The resulting samples were injected onto an LC-MS/MS system for analysis.
(§3) For each incubation, the peak area of the analytes in each t0 aliquot was set to 100% and the peak areas from subsequent time point aliquots were converted to percentage of parent compound remaining relative to t0. The percentage of parent compound remaining at each time point was converted to natural log scale and plotted versus time in minutes to determine a disappearance half-life.

JAK1 = biological target: T1, JAK1 (Homo sapiens, UniProt P23458); experiment: Biochemical LanthaScreen JAK1 kinase assay; details: Km ATP 25 μM; pKi from pIC50 by Cheng-Prusoff; read-out: JAK 1 (pKi) (converted)
T1 construct: GST; purchased Life Technologies
T1 sequence (P23458 whole entry): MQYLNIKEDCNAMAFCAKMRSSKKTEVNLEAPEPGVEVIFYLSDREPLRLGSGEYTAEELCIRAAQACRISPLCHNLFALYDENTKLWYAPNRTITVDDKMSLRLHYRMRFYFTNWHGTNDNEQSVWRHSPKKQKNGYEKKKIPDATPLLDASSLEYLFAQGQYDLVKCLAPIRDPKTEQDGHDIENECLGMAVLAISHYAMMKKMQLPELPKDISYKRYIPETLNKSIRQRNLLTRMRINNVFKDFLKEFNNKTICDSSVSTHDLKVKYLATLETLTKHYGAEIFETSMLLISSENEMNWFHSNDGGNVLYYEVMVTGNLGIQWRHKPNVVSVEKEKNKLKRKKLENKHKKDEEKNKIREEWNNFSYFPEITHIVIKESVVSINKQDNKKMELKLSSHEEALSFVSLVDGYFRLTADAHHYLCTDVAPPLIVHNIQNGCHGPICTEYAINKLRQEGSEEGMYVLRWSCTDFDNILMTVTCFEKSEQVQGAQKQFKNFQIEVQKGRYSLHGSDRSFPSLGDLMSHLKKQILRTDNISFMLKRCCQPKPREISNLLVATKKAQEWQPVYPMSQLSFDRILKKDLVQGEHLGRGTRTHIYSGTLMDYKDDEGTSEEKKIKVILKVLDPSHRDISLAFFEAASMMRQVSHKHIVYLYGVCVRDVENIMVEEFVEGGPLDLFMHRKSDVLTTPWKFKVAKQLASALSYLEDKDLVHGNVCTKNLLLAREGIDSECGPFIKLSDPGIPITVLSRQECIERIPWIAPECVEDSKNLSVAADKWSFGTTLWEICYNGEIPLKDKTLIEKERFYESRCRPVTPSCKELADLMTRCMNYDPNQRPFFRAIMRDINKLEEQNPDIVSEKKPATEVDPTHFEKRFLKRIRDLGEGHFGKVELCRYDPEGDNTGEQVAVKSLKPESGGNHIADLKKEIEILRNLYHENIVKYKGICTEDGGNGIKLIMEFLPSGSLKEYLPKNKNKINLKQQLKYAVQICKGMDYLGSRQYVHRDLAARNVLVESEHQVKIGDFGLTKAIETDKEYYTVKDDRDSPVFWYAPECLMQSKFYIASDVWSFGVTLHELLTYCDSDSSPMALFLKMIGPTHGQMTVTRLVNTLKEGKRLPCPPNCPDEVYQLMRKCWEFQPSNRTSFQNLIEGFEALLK
Experimental: (§4) Assay 1: Biochemical JAK and Tyk2 Kinase Assays A panel of four LanthaScreen JAK biochemical assays (JAK1, 2, 3 and Tyk2) were carried in a common kinase reaction buffer (50 mM HEPES, pH 7.5, 0.01% Brij-35, 10 mM MgCl2, and 1 mM EGTA). Recombinant GST-tagged JAK enzymes and a GFP-tagged STAT1 peptide substrate were obtained from Life Technologies. Serially or discretely diluted compounds were pre-incubated with each of the four JAK enzymes and the substrate in white 384-well microplates (Corning) at ambient temperature for 1 h. ATP was subsequently added to initiate the kinase reactions in 10 μL total volume, with 1% DMSO. […] Kinase reactions were allowed to proceed for 1 hour at ambient temperature before a 10 μL preparation of EDTA (10 mM final concentration) and Tb-anti-pSTAT1 ([…]) antibody (Life Technologies, 2 nM final concentration) in TR-FRET dilution buffer (Life Technologies) was added. The plates were allowed to incubate at ambient temperature for 1 h before being read on the EnVision reader (Perkin Elmer). Emission ratio signals (520 nm/495 nm) were recorded and utilized to calculate the percent inhibition values based on DMSO and background controls. For dose-response analysis, percent inhibition data were plotted vs. compound concentrations, and IC50 values were determined from a 4-parameter robust fit model with the Prism software (GraphPad Software). Results were expressed as pIC50 (negative logarithm of IC50) and subsequently converted to pKi (negative logarithm of dissociation constant, Ki) using the Cheng-Prusoff equation.

physchem [2] = format: physicochemical; details: pH 7.4, aqueous buffer, thermodynamic from solid
Experimental: Assay 4: Aqueous Solubility Assay The purpose of this assay was to quantify the solubility of test compounds in pH 4 and pH 7.4 PBS buffers. The assay required 40 μL of 10 mM DMSO test compound solution per desired buffer in addition to 20 μL required to make a test standard. For example, to test a compound in both buffers, 100 μL (2*40 μL+20 μL) of 10 mM DMSO compound stock solution was required. The standard was created by diluting 20 μL of 10 mM DMSO compound stock solution into 180 μL of methanol and was shaken for five minutes to ensure solution uniformity. […] This 1,000 μM solution was run on an Agilent 1260 LC-MS system by injecting 2 μL in order to obtain the peak area. For the test solutions, 40 μL of 10 mM DMSO compound stock solution, per PBS buffer condition, were dried down into a powder overnight. Once in powder form, 400 μL of the desired PBS buffer was added to the powder and allowed to shake vigorously for four hours. The maximum theoretical concentration for this sample solution was 1,000 μM. After four hours of shaking, the samples were centrifuged for 10 minutes at 3,000 RPM before injecting 2 μL on the same Agilent 1260 LC-MS system to obtain the peak area. […]

[3] = In vitro skin S9 metabolic stability assay (mouse); format: in vitro ADME; details: mouse, s9, pH 7.4
Experimental: as §1, §2, §3

physchem [4] = format: physicochemical; details: thermodynamic from solid
Experimental: Assay 5: Solubility Assay in Organic Excipients The purpose of this assay was to quantify the solubility of test compounds in different organic excipients such as diisopropyl adipate, medium chain triglycerides (MCT), propylene glycol, and polyethylene glycol. The assay required 80 μL of 100 mM DMSO test compound solution per desired excipient in addition to 40 μL required to make a test standard. For example, to test a compound in all five […]) of 100 mM DMSO compound stock solution was required. The standard was created by diluting 40 μL of 100 mM DMSO compound stock solution into 160 μL of methanol and was shaken for five minutes to ensure solution uniformity. […] This 20,000 μM solution was run on an Agilent 1260 LC-MS system by injecting 0.2 μL in order to obtain the peak area. For the test solutions, 80 μL of 100 mM DMSO compound stock solution, per excipient, were dried down into a powder overnight. Once in powder form, 400 μL of the desired excipient was added to the powder and allowed to shake vigorously for four hours. The maximum theoretical concentration for this sample solution was 20,000 μM. After four hours of shaking, the samples were centrifuged for 10 minutes at 3,000 RPM before injecting 0.2 μL on the same Agilent 1260 LC-MS system to obtain the peak area. […] In Table 3 below, A represents a value above 10, B represents a value between 5 and 10, C represents a value below 5.

JAK2 = biological target: T2, JAK2 (Homo sapiens, UniProt O60674); experiment: Biochemical LanthaScreen JAK2 kinase assay; details: Km ATP 3 μM; pKi from pIC50 by Cheng-Prusoff; read-out: JAK 2 (pKi) (converted)
T2 construct: GST; purchased Life Technologies
T2 sequence (O60674 whole entry): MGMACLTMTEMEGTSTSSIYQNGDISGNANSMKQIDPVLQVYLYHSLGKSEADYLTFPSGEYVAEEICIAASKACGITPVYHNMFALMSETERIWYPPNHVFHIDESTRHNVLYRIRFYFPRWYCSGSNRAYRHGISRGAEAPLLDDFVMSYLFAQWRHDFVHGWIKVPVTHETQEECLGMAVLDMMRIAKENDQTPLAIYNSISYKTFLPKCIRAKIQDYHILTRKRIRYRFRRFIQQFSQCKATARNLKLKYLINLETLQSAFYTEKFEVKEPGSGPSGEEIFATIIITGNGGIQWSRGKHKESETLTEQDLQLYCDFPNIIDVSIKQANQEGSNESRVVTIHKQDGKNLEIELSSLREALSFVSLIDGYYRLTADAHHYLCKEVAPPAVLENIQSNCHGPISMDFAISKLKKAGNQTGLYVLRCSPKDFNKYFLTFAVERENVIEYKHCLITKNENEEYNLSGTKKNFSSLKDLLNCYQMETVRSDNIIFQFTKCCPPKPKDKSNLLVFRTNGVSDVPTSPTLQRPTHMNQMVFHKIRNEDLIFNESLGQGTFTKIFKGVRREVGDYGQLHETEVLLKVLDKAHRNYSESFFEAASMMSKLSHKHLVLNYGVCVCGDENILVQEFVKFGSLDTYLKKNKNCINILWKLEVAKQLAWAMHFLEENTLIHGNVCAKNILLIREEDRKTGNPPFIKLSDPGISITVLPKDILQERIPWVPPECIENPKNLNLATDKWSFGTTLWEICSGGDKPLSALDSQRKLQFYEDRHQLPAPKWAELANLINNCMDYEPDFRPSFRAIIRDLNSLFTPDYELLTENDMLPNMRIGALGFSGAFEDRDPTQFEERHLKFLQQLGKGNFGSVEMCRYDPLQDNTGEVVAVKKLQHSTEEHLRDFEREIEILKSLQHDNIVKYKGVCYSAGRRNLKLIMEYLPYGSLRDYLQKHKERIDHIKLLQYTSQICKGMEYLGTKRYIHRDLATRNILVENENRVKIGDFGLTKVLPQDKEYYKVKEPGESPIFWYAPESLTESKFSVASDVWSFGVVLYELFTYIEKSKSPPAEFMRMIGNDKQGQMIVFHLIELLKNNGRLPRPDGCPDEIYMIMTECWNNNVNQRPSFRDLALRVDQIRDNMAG
Experimental: as §4

Tyk2 = biological target: T3, Tyk2 (Homo sapiens, UniProt P29597); experiment: Biochemical LanthaScreen Tyk2 kinase assay; details: Km ATP 10 μM; pKi from pIC50 by Cheng-Prusoff; read-out: Tyk 2 (pKi) (converted)
T3 construct: GST; purchased Life Technologies
T3 sequence (P29597 whole entry): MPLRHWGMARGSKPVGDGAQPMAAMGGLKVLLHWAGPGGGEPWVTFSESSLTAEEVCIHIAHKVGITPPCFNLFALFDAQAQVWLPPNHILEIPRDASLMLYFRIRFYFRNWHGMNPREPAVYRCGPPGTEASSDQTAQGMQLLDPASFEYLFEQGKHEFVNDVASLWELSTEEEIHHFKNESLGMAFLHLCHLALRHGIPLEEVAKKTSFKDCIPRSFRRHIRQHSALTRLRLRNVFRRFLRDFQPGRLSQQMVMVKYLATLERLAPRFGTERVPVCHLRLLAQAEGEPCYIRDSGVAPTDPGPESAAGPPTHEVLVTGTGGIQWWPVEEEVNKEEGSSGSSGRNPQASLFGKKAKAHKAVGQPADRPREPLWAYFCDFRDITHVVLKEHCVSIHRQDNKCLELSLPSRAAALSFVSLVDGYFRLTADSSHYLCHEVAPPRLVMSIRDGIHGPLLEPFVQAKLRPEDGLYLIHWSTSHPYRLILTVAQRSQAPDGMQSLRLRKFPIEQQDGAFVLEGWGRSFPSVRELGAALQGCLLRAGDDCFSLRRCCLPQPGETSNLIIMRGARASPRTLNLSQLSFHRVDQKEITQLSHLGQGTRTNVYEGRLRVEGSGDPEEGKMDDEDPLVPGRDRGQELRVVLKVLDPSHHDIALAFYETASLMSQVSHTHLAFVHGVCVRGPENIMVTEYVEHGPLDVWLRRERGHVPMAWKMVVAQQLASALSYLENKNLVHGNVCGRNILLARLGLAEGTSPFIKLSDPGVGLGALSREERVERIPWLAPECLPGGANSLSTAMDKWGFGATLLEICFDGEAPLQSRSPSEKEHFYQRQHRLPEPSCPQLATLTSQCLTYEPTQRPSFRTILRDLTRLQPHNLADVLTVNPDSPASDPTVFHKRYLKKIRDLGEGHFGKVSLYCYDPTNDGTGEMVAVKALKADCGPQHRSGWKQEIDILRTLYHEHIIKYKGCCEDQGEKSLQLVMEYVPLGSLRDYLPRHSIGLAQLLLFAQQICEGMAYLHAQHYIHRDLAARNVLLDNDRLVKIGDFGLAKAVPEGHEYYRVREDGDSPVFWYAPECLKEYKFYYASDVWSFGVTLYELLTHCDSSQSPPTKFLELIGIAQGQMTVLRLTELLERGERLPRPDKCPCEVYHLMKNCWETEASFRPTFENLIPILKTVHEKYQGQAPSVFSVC
Experimental: as §4

[5] = oil or lipid, Solubility in MCT
[6] = organic solvent or mixture, Solubility in Diisopropyl adipate
[7] = organic solvent or mixture, Solubility in PEG400
[8] = organic solvent or mixture, Solubility in Propylene glycol
[9] = organic solvent or mixture, Solubility in Transcutol

SMILES | half-life at 0.2 μM [1] | half-life at 2 μM [1] | Ki (JAK1) | solubility at 4 h (physchem [2]) | half-life at 0.2 μM [3] | half-life at 2 μM [3] | solubility at 4 h (physchem [4]; [5]) | solubility at 4 h (physchem [4]; [6]) | solubility at 4 h (physchem [4]; [7]) | solubility at 4 h (physchem [4]; [8]) | solubility at 4 h (physchem [4]; [9]) | Ki (JAK2) | Ki (Tyk2)
CCC(=O)OCc1nc(N(C)[C@@H]2C[C@H]3CCC[C@@H](C2)N3S(=O)(=O)CC)nc(Nc2cc(C)[nH]n2)c1F [Compound 2, (2-(((1R,3s,5S)-9-(ethylsulfonyl)-9-azabicyclo[3.3.1]nonan-3-yl)(methyl)amino)-5-fluoro-6-((5-methyl-1H-pyrazol-3-yl)amino)pyrimidin-4-yl)methyl propionate] | > 30 min | > 30 min | 0.1 to 1 nM | 10 to 50 µM (≈ 5.24 to 26.2 µg/mL) | 15 to 30 min | 15 to 30 min | < 5000 µg/mL | > 10000 µg/mL | > 10000 µg/mL | > 10000 µg/mL | > 10000 µg/mL |  | 
CCCC(=O)OCc1nc(N(C)[C@@H]2C[C@H]3CCC[C@@H](C2)N3S(=O)(=O)CC)nc(Nc2cc(C)[nH]n2)c1F [Compound 3, (2-(((1R,3s,5S)-9-(ethylsulfonyl)-9-azabicyclo[3.3.1]nonan-3-yl)(methyl)amino)-5-fluoro-6-((5-methyl-1H-pyrazol-3-yl)amino)pyrimidin-4-yl)methyl butyrate] | > 30 min | > 30 min | 0.1 to 1 nM | 10 to 50 µM (≈ 5.38 to 26.9 µg/mL) | < 15 min | < 15 min | < 5000 µg/mL | > 10000 µg/mL | > 10000 µg/mL | > 10000 µg/mL | > 10000 µg/mL |  | 
CCCCC(=O)OCc1nc(N(C)[C@@H]2C[C@H]3CCC[C@@H](C2)N3S(=O)(=O)CC)nc(Nc2cc(C)[nH]n2)c1F [Compound 4, (2-(((1R,3s,5S)-9-(ethylsulfonyl)-9-azabicyclo[3.3.1]nonan-3-yl)(methyl)amino)-5-fluoro-6-((5-methyl-1H-pyrazol-3-yl)amino)pyrimidin-4-yl)methyl pentanoate] | 15 to 30 min | > 30 min | 0.1 to 1 nM | 50 to 100 µM (≈ 27.6 to 55.2 µg/mL) | < 15 min | < 15 min | < 5000 µg/mL | > 10000 µg/mL | > 10000 µg/mL | < 5000 µg/mL | > 10000 µg/mL |  | 
CCCCCCC(=O)OCc1nc(N(C)[C@@H]2C[C@H]3CCC[C@@H](C2)N3S(=O)(=O)CC)nc(Nc2cc(C)[nH]n2)c1F [Compound 5, (2-(((1R,3s,5S)-9-(ethylsulfonyl)-9-azabicyclo[3.3.1]nonan-3-yl)(methyl)amino)-5-fluoro-6-((5-methyl-1H-pyrazol-3-yl)amino)pyrimidin-4-yl)methyl heptanoate] |  |  | 1 to 10 nM | 10 to 50 µM (≈ 5.8 to 29 µg/mL) |  |  | < 5000 µg/mL | > 10000 µg/mL | > 10000 µg/mL | 5000 to 10000 µg/mL (≈ 8.62 to 17.2 mM) | > 10000 µg/mL |  | 
CCS(=O)(=O)N1[C@@H]2CCC[C@H]1C[C@H](N(C)c1nc(COC(=O)C3CCOCC3)c(F)c(Nc3cc(C)[nH]n3)n1)C2 [Compound 7, (2-(((1R,3s,5S)-9-(ethylsulfonyl)-9-azabicyclo[3.3.1]nonan-3-yl)(methyl)amino)-5-fluoro-6-((5-methyl-1H-pyrazol-3-yl)amino)pyrimidin-4-yl)methyl tetrahydro-2H-pyran-4-carboxylate] |  |  | 0.1 to 1 nM | 100 to 1000 µM (≈ 58 to 580 µg/mL) |  |  | < 5000 µg/mL | > 10000 µg/mL | > 10000 µg/mL | > 10000 µg/mL |  | ≤ 0.1 nM | ≤ 0.1 nM
CCS(=O)(=O)N1[C@@H]2CCC[C@H]1C[C@H](N(C)c1nc(COC(=O)OC(C)C)c(F)c(Nc3cc(C)[nH]n3)n1)C2 [Compound 8, (2-(((1R,3s,5S)-9-(ethylsulfonyl)-9-azabicyclo[3.3.1]nonan-3-yl)(methyl)amino)-5-fluoro-6-((5-methyl-1H-pyrazol-3-yl)amino)pyrimidin-4-yl)methyl isopropyl carbonate] |  |  | 0.1 to 1 nM | 50 to 100 µM (≈ 27.7 to 55.4 µg/mL) |  |  | < 5000 µg/mL | > 10000 µg/mL | > 10000 µg/mL | < 5000 µg/mL |  |  | 
CCS(=O)(=O)N1[C@@H]2CCC[C@H]1C[C@H](N(C)c1nc(COC(=O)OC3CCOCC3)c(F)c(Nc3cc(C)[nH]n3)n1)C2 [Compound 9, (2-(((1R,3s,5S)-9-(ethylsulfonyl)-9-azabicyclo[3.3.1]nonan-3-yl)(methyl)amino)-5-fluoro-6-((5-methyl-1H-pyrazol-3-yl)amino)pyrimidin-4-yl)methyl (tetrahydro-2H-pyran-4-yl) carbonate] |  |  | 0.1 to 1 nM | 100 to 1000 µM (≈ 59.6 to 596 µg/mL) |  |  | < 5000 µg/mL | > 10000 µg/mL | > 10000 µg/mL | > 10000 µg/mL |  | ≤ 0.1 nM | 0.1 to 1 nM
CCS(=O)(=O)N1[C@@H]2CCC[C@H]1C[C@H](N(C)c1nc(CO)c(F)c(Nc3cc(C)[nH]n3)n1)C2 [Compound M, (2-(((1R,3s,5S)-9-(ethylsulfonyl)-9-azabicyclo[3.3.1]nonan-3-yl)(methyl)amino)-5-fluoro-6-((5-methyl-1H-pyrazol-3-yl)amino)pyrimidin-4-yl)methanol] |  |  | ≤ 0.1 nM | 10 to 50 µM (≈ 4.68 to 23.4 µg/mL) |  |  | < 5000 µg/mL | < 5000 µg/mL | < 5000 µg/mL | < 5000 µg/mL | > 10000 µg/mL | ≤ 0.1 nM | 0.1 to 1 nM
